Assay results published in patent US7888386B2, “3-(phenoxyphenylmethyl)pyrrolidine compounds” (Theravance, Inc., priority 2008, dated 2011).
Where two headings read alike, the source gives them in different places.

What was measured:
hSERT = molecular target: T1, hSERT (Homo sapiens, UniProt P31645); experiment: hSERT binding assay (Assay 1)
T1 construct: expressed in transfected cells; host or cells: HEK-293 derived cell line, stably transfected; membrane preparation
Outline: (§1)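 Membranes from HEK-293 cells stably expressing human NET or SERT competed test compound against ^3H-nisoxetine (hNET) or ^3H-citalopram (hSERT). Buffer was 50 mM Tris-HCl pH 7.4, 120 mM NaCl, 5 mM KCl, 0.1% BSA and 400 μM ascorbic acid.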

hNET = molecular target: T2, hNET (Homo sapiens, UniProt P23975); experiment: hNET binding assay (Assay 1)
T2 construct: expressed in transfected cells; host or cells: HEK-293 derived cell line, stably transfected; membrane preparation
T2 sequence (P23975 whole entry): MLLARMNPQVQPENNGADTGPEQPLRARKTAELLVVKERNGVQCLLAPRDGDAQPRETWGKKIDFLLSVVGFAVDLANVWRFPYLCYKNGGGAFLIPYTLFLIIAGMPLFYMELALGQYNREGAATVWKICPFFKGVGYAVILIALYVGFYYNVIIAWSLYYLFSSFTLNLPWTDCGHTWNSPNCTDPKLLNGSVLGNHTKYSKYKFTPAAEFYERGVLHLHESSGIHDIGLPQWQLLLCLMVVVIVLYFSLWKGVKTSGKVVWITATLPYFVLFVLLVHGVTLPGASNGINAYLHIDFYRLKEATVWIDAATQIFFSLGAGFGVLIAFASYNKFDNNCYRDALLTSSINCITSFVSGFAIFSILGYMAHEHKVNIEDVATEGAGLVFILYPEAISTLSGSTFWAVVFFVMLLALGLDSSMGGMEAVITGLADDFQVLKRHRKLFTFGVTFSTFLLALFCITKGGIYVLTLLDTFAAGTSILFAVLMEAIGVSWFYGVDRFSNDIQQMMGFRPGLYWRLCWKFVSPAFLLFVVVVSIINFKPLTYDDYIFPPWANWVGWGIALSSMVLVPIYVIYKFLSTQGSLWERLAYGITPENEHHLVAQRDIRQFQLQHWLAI
Outline: as §1

[1] = Thermal analysis (DSC) of crystalline salt; type: physicochemical; details: crystalline monohydrochloride salt, heating ramp 10° C./min
Procedure: Differential scanning calorimetry (DSC) was performed using a TA Instruments Model Q-100 module with a Thermal Analyst controller. Data were collected and analyzed using TA Instruments Thermal Solutions software. A 1.64 mg sample of the crystalline form of Example 2 was accurately weighed into a covered aluminum pan. After a 5 minute isothermal equilibration period at 22° C., the sample was heated using a linear heating ramp of 10° C./min from 22° C. to 250° C.

[2] = ratio of binding Ki at hSERT to Ki at hNET, rounded off to the nearest tenth
[3] = membranes of HEK-293 cells expressing hNET, 1.0 nM 3H-nisoxetine, read-out: NET pKi (converted)
[4] = ratio of SERT Ki to NET Ki from binding assays
[5] = hNET binding assay, read-out: NET pKi (converted)
[6] = ratio of SERT Ki to NET Ki (binding)
[7] = hNET binding, read-out: NET pKi (converted)

T1 sequence (P31645 whole entry): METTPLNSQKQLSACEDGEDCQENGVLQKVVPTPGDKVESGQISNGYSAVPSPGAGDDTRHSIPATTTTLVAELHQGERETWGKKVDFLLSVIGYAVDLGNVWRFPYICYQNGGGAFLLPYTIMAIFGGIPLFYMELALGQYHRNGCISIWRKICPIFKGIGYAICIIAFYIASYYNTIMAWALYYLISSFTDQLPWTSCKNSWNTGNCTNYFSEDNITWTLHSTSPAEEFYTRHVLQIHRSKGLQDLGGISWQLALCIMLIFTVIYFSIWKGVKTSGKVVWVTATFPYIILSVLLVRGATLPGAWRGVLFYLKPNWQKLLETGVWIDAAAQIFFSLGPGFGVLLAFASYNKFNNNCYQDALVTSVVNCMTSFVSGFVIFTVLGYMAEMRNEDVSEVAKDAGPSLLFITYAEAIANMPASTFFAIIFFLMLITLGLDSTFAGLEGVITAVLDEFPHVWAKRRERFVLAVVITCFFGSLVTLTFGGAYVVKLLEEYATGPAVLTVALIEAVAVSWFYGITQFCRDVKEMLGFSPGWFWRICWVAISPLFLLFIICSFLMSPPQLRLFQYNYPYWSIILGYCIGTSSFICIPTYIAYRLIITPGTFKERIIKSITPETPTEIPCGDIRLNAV

SMILES	SERT Ki/NET Ki (hSERT; [2])	Ki (hNET; [3])	further results
Clc1ccccc1OC(c1ccccc1Cl)C1CCNC1 (stereo not drawn) [Compound 20-1]	0.5	3.16 nM	–
Fc1cccc(C(Oc2ccccc2Cl)C2CCNC2)c1 (stereo not drawn) [Compound 20-4]	0.63	2.51 nM	–
Clc1cccc(C(Oc2ccccc2Cl)C2CCNC2)c1 (stereo not drawn) [Compound 20-5]	1.6	2.51 nM	–
COc1cccc(C(Oc2ccccc2Cl)C2CCNC2)c1 (stereo not drawn) [Compound 20-7]	1.3	3.16 nM	–
COc1cccc(C(Oc2ccccc2C(C)C)C2CCNC2)c1 (stereo not drawn) [Compound 20-10]	2.5	5.01 nM	–
CC(C)c1ccccc1OC(c1cccc(Cl)c1)C1CCNC1 (stereo not drawn) [Compound 20-12]	7.9	5.01 nM	–
CC(C)c1ccccc1OC(c1cccc(F)c1)C1CCNC1 (stereo not drawn) [Compound 20-13]	10	5.01 nM	–
COc1ccccc1OC(c1cccc(F)c1)C1CCNC1 (stereo not drawn) [Compound 20-15]	4	5.01 nM	–
COc1ccccc1OC(c1ccccc1Cl)C1CCNC1 (stereo not drawn) [Compound 20-16]	4	1.26 nM	–
COc1ccccc1OC(c1ccccc1Cl)C1CCNC1 (stereo not drawn) [Compound 20-17]	13	1 nM	–
COc1ccccc1OC(c1ccc(Cl)cc1)C1CCNC1 (stereo not drawn) [Compound 20-21]	4	2 nM	–
COc1ccccc1OC(c1ccccc1OC(F)(F)F)C1CCNC1 (stereo not drawn) [Compound 20-23]	1.6	5.01 nM	–
COc1ccccc1OC(c1cccc(CO)c1)C1CCNC1 (stereo not drawn) [Compound 20-26]	10	3.98 nM	–
COc1ccccc1OC(c1cccc(C(N)=O)c1)C1CCNC1 (stereo not drawn) [Compound 20-30]	25	2.51 nM	–
COc1ccccc1O[C@H](c1cc(F)cc(F)c1)[C@@H]1CCNC1 [Compound 20-34]	1	3.98 nM	–
COc1ccccc1OC(c1cc(F)cc(Cl)c1)C1CCNC1 (stereo not drawn) [Compound 20-35]	16	0.631 nM	–
Fc1cccc(OC(c2ccccc2)C2CCNC2)c1 (stereo not drawn) [Compound 21-1]	1	3.98 nM	–
Brc1cccc(OC(c2ccccc2)C2CCNC2)c1 (stereo not drawn) [Compound 21-5]	0.2	3.16 nM	–
Ic1cccc(OC(c2ccccc2)C2CCNC2)c1 (stereo not drawn) [Compound 21-6]	0.2	3.98 nM	–
Cc1cccc(OC(c2ccccc2)C2CCNC2)c1 (stereo not drawn) [Compound 21-7]	0.5	3.98 nM	–
Cc1cccc(O[C@@H](c2ccccc2)[C@H]2CCNC2)c1 [Compound 21-8]	2.5	6.31 nM	–
c1ccc(Oc2cccc(OC(c3ccccc3)C3CCNC3)c2)cc1 (stereo not drawn) [Compound 21-13]	1.3	1.26 nM	–
Clc1cccc(Oc2cccc(OC(c3ccccc3)C3CCNC3)c2)c1 (stereo not drawn) [Compound 21-14]	0.8	5.01 nM	–
Clc1ccc(Oc2cccc(OC(c3ccccc3)C3CCNC3)c2)cc1 (stereo not drawn) [Compound 21-16]	0.3	6.31 nM	–
Fc1cccc(C(Oc2cccc(Cl)c2)C2CCNC2)c1 (stereo not drawn) [Compound 22-3]	0.1	7.94 nM	–
Clc1cccc(OC(c2cccc(Cl)c2)C2CCNC2)c1 (stereo not drawn) [Compound 22-4]	0.2	7.94 nM	–
Cc1ccc(OC(c2ccccc2)C2CCNC2)cc1 (stereo not drawn) [Compound 23-6]	0.2	6.31 nM	–

SMILES	SERT Ki/NET Ki (hSERT; [2])	Ki (hNET; [3])	further results
c1ccc(COc2ccc(OC(c3ccccc3)C3CCNC3)cc2)cc1 (stereo not drawn) [Compound 23-15]	2	7.94 nM	–
Fc1cccc(OC(c2ccccc2)C2CCNC2)c1F (stereo not drawn) [Compound 25-1]	32	0.794 nM	–
Fc1cccc(O[C@H](c2ccccc2)[C@@H]2CCNC2)c1F [Compound 25-2]	0.2	6.31 nM	–
Fc1c(Cl)cccc1OC(c1ccccc1)C1CCNC1 (stereo not drawn) [Compound 25-3]	0.5	0.794 nM	–
Fc1c(Cl)cccc1O[C@H](c1ccccc1)[C@@H]1CCNC1 [Compound 25-5]	0.1	1.58 nM	–
Fc1c(Oc2ccccc2)cccc1OC(c1ccccc1)C1CCNC1 (stereo not drawn) [Compound 25-8]	1.3	2.51 nM	–
Clc1c(Oc2ccccc2)cccc1OC(c1ccccc1)C1CCNC1 (stereo not drawn) [Compound 25-15]	0.2	2.51 nM	–
Cc1c(F)cccc1O[C@@H](c1ccccc1)[C@H]1CCNC1 [Compound 25-19]	4	0.794 nM	–
Cc1c(Cl)cccc1OC(c1ccccc1)C1CCNC1 (stereo not drawn) [Compound 25-20]	0.2	0.631 nM	–
Cc1c(Cl)cccc1OC(c1ccccc1)C1CCNC1 (stereo not drawn) [Compound 25-21]	0.6	1.26 nM	–
Cc1c(Cl)cccc1O[C@H](c1ccccc1)[C@@H]1CCNC1 [Compound 25-22]	0.2	0.631 nM	–
Cc1cccc(OC(c2ccccc2)C2CCNC2)c1C (stereo not drawn) [Compound 25-23]	0.1	1.58 nM	–
Cc1cccc(O[C@@H](c2ccccc2)[C@H]2CCNC2)c1C [Compound 25-24]	0.3	2.51 nM	–
COc1c(F)cccc1O[C@@H](c1ccccc1)[C@H]1CCNC1 [Compound 25-26]	13	1.26 nM	–
CC(=O)c1c(F)cccc1OC(c1ccccc1)C1CCNC1 (stereo not drawn) [Compound 25-30]	10	3.16 nM	–
COC(=O)c1c(F)cccc1OC(c1ccccc1)C1CCNC1 (stereo not drawn) [Compound 25-34]	100	1 nM	–
Fc1ccccc1C(Oc1cccc(Cl)c1Cl)C1CCNC1 (stereo not drawn) [Compound 26-1]	–	–	SERT Ki/NET Ki (hSERT; [4]): 0.1; Ki (hNET; [5]): 1.58 nM
Clc1cccc(C(Oc2cccc(Cl)c2Cl)C2CCNC2)c1 (stereo not drawn) [Compound 26-3]	–	–	SERT Ki/NET Ki (hSERT; [4]): 0.1; Ki (hNET; [5]): 5.01 nM
COc1cccc(C(Oc2cccc(Cl)c2Cl)C2CCNC2)c1 (stereo not drawn) [Compound 26-6]	–	–	SERT Ki/NET Ki (hSERT; [4]): 0.1; Ki (hNET; [5]): 3.98 nM
CCOc1ccccc1OC(c1ccccc1)C1CCNC1 (stereo not drawn) [Ex. 5, 3-[(2-Ethoxyphenoxy)phenylmethyl]pyrrolidine]	32	1.26 nM	–
Fc1cc(F)c(Cl)c(O[C@@H](c2ccccc2)[C@H]2CCNC2)c1 [Ex. 8-1, (S)-3-[(R)-(2-Chloro-3,5-difluorophenoxy)phenylmethyl]pyrrolidine]	–	–	SERT Ki/NET Ki (hSERT; [6]): 2.5; Ki (hNET; [7]): 2 nM
Fc1cccc(O[C@@H](c2ccccc2)[C@H]2CCNC2)c1Cl [Ex. 9-4, (S)-3-[(R)-(2-chloro-3-fluorophenoxy)phenylmethyl]pyrrolidine]	6.3	0.631 nM	–
Clc1cc(Cl)c(Cl)c(OC(c2ccccc2)C2CCNC2)c1Cl (stereo not drawn) [Ex. 10-2, 3-[phenyl-(2,3,5,6-tetrachlorophenoxy)methyl]pyrrolidine]	–	–	SERT Ki/NET Ki (hSERT; ratio of binding Ki at SERT to Ki at NET, the tables list only compounds with a ratio in the range 0.1-100): 0.1; Ki (hNET; NET pKi, hNET binding, the tables list only compounds with NET pKi≧8): 1.26 nM
Fc1cc(F)c(Cl)c(O[C@@H](c2ccccc2)[C@H]2CCNC2)c1Cl [Ex. 11, (S)-3-[(R)-(2,6-dichloro-3,5-difluorophenoxy)phenylmethyl]pyrrolidine]	–	–	no thermal decomposition below (DSC) [1]: ≥ 190.7 °C
Cc1ccc(F)c(O[C@@H](c2ccccc2)[C@H]2CCNC2)c1Cl [Ex. 13, (S)-3-[(R)-(2-chloro-6-fluoro-3-methylphenoxy)phenylmethyl]pyrrolidine]	–	–	SERT Ki/NET Ki (hSERT; [6]): 1.3; Ki (hNET; [7]): 0.251 nM
Fc1ccc(F)c(O[C@H](c2ccccc2)[C@@H]2CCNC2)c1Cl [Ex. 14, (R)-3-[(S)-(2-chloro-3,6-difluorophenoxy)phenyl-methyl]pyrrolidine]	–	–	no thermal decomposition below (DSC) [1]: ≥ 160 °C
Clc1cc(Cl)cc(O[C@H](c2ccccc2)[C@@H]2CCNC2)c1 [Ex. 16, (R)-3-[(S)-(3,5-Dichlorophenoxy)phenylmethyl]pyrrolidine]	–	–	no thermal decomposition below (DSC) [1]: ≥ 220 °C
